{
  "source": "patent US20040029823A1",
  "about": "“Antisense oligonucleotide compositions and methods for the modulation of JNK proteins” (priority 1997, published 2004)",
  "note": "e = 2'-O-(2-methoxyethyl) (MOE); d = 2'-deoxy (DNA)",
  "data": [
    {"system": "JNK3 mRNA", "assay": "Northern assay of JNK3 mRNA levels in SH-SY5Y cells", "assay_type": "cell-based, human", "conditions": "200 nM oligonucleotide", "protocol": "Northern Assays: The mRNA expression of each JNK protein was determined by using a nucleic acid probe specifically hybridizable thereto. Nucleic acid probes specific for JNK1, JNK2 and JNK3 are described in Examples 3, 4 and 5, respectively. The probes were radiolabelled by means well known in the art (see, e.g., Short Protocols in Molecular Biology, 2nd Ed., Ausubel et al., Eds., John Wiley & Sons, New York, 1992, pages 3-11 to 2-3-44 and 4-17 to 4-18; Ruth, Chapter 6 In: Methods in Molecular Biology, Vol. 26: Protocols for Oligonucleotide Conjugates, Agrawal, ed., Humana Press Inc., Totowa, N.J., 1994, pages 167-185; and Chapter 10 In: Molecular Cloning: A Laboratory Manual, 2nd Ed., Sambrook et al., Eds., pages 10.1-10.70). The blots were stripped and reprobed with a ^32P-labeled glyceraldehyde 3-phosphate dehydrogenase (G3PDH) probe (Clontech Laboratories, Inc., Palo Alto, Calif.) in order to confirm equal loading of RNA and to allow the levels of JNK transcripts to be normalized with regard to the G3PDH signals.\nB. JNK3-specific probes: In initial screenings of a set of oligonucleotides derived from the JNK3 sequence for biological activity, a cDNA clone of JNK3 (Derijard et al., Cell, […], 76, 1025) was radiolabeled and used as a JNK3-specific probe in Northern blots. Alternatively, however, one or more of the oligonucleotides of Table 14 is detectably labeled and used as a JNK3-specific probe.\nE. Activities of JNK3 oligonucleotides: The JNK3-specific phosphorothioate, 2′-methoxyethoxy “gapmer” oligonucleotides (Table 14) were screened for their ability to affect JNK3 mRNA levels in SH-SY5Y cells (Biedler et al., Cancer Res., 1973, 33, 2643). SH-SY5Y cells express a variety of mitogen-activated protein kinases (MAPKs; see, e.g., Cheng et al., J. Biol. Chem., 1998, 273, 14560). Cells were grown in DMEM essentially as previously described (e.g., Singleton et al., J. Biol. Chem., 1996, 271, 31791; Jalava et al., Cancer Res., 1990, 50, 3422) and treated with oligonucleotides at a concentration of 200 nM as described in Example 2. Control cultures were treated with an aliquot of LIPOFECTIN™ that contained no oligonucleotide.", "units": {"% EXPRESSION": "%", "% INHIBITION": "%"}, "values": [
      {"substance": "16705 (antisense AGGCTGCTGTCAGTGTCAGA; sugars from the 5' end e6 d8 e6, all phosphorothioate, methylation of C not given here) [compound 16705]", "% EXPRESSION": 42},
      {"substance": "16695 (antisense TTATCGAATCCCTGACAAAA; sugars from the 5' end e6 d8 e6, all phosphorothioate, methylation of C not given here) [compound 16695]", "% EXPRESSION": 44},
      {"substance": "16703 (antisense TCTCACTGCTGTTCACTGCT; sugars from the 5' end e6 d8 e6, all phosphorothioate, methylation of C not given here) [compound 16703]", "% EXPRESSION": 30},
      {"substance": "16692 (antisense TGGAGGCTCATAAATACCAC; sugars from the 5' end e6 d8 e6, all phosphorothioate, methylation of C not given here) [compound 16692]", "% EXPRESSION": 47},
      {"substance": "16707 (antisense GCGGCTAGTCACCTGCAACA; sugars from the 5' end e6 d8 e6, all phosphorothioate, methylation of C not given here) [compound 16707]", "% EXPRESSION": 73, "% INHIBITION": 27},
      {"substance": "16693 (antisense TATAAGAAATGGAGGCTCAT; sugars from the 5' end e6 d8 e6, all phosphorothioate, methylation of C not given here) [compound 16693]", "% EXPRESSION": 40}
    ]}
  ]
}
